Measured values: US11458114B2, “Methods and compositions for enhancing synthesis secretion and transport of collagen to increase wound strength” (NORTH CELL PHARMACEUTICALS, INC., priority 2020, dated 2022)

Test system: wounds
Experiment: Various drugs administered on wounds with or without sodium pyruvate or SRF: erythema rating and days to total re-epithelization
Settings: for Drug in commercial formula with SRF. Days to healing / Drug in commercial formula with sodium pyruvate only. Days to healing / Drug in commercial formula Days to healing: days to total re-epithelization
Experimental: All previous studies using pyruvate to treat wounds or be used as an antioxidant used only the sodium salt form of pyruvic acid. The drug products that were tested in previous studies used 1-3% sodium pyruvate and other sodium salts of alpha keto acids by weight 1-3% concentrations in the lotions and triple antibiotic formulations. […]

[1] = Rating 1-10, 1 most erythema, 10 no erythema
[2] = Rating 1-10, 1 most erythema, 10 no erythema, drug alone

Compound	Drugs in commercial formula erythema (in vivo)	Drugs in commercial formula with SRF erythema (in vivo)	Drugs in commercial formula with sodium pyruvate only erythema (in vivo)	Drugs in commercial formula with SRF erythema [1]	Drugs in commercial formula with sodium pyruvate only erythema [1]	Drugs in commercial formula erythema [2]	Drug in commercial formula with SRF. Days to healing	Drug in commercial formula with sodium pyruvate only. Days to healing	Drug in commercial formula Days to healing (drug alone)
Clc1ccccc1C(c1ccccc1)(c1ccccc1)n1ccnc1 [Chlotrimizole]	4	8	6				11 days	15 days	22 days
CC(=O)OCC(CCn1cnc2cnc(N)nc21)COC(C)=O [Famciclovir]				7	6	5	12 days	14 days	17 days
Nc1nc2c(ncn2CCC(CO)CO)c(=O)[nH]1 [Penciclovir]				8	7	7	12 days	16 days	17 days
CC1=C(/C=C/C(C)=C/C=C/C(C)=C/CO)C(C)(C)CCC1 [Retinol]				7	3	1	9 days	15 days	19 days
CN(Cc1ccc(C(C)(C)C)cc1)Cc1cccc2ccccc12 [butenafine]				5	4	3	16 days	18 days	21 days
Cc1cc(C2CCCCC2)n(O)c(=O)c1 [ciclopirox]				9	5	4	9 days	11 days	20 days
Clc1ccc(COC(Cn2ccnc2)c2ccc(Cl)cc2Cl)cc1 (stereo not drawn) [econazole]				6	6	6	14 days	17 days	19 days

Now from value to compound, other results behind:

Drugs in commercial formula erythema (in vivo)	Drugs in commercial formula with SRF erythema (in vivo)	Drugs in commercial formula with sodium pyruvate only erythema (in vivo)	Drugs in commercial formula with SRF erythema [1]	Drugs in commercial formula with sodium pyruvate only erythema [1]	Drugs in commercial formula erythema [2]	Compound	Drug in commercial formula with SRF. Days to healing	Drug in commercial formula with sodium pyruvate only. Days to healing	Drug in commercial formula Days to healing (drug alone)
			8	5	6	CC[C@H]1OC(=O)[C@H](C)[C@@H](O[C@H]2C[C@@](C)(OC)[C@@H](O)[C@H](C)O2)[C@H](C)[C@@H](O[C@@H]2O[C@H](C)C[C@H](N(C)C)[C@H]2O)[C@](C)(O)C[C@@H](C)C(=O)[C@H](C)[C@@H](O)[C@]1(C)O [erythromycin]	9 days	13 days	19 days
			8	6	3	CC(=O)N1CCN(c2ccc(OCC3COC(Cn4ccnc4)(c4ccc(Cl)cc4Cl)O3)cc2)CC1 (stereo not drawn) [ketoconazole]	14 days	20 days	23 days
			7	8	8	NCc1ccc(S(N)(=O)=O)cc1 [mafenide]	12 days	14 days	18 days
